According to patent US20230159510A1, “NOVEL PRMT5 INHIBITORS” (AMGEN INC., priority 2020, published 2023):
Like-named read-outs stand apart in the source and are kept apart here.

Tests used:
[1] = tested on: HCT116 WT cells; assay: HCT116 proliferation assay, WT cells (CellTiter-Glo, 6 days); type: cell-based; conditions: Homo sapiens, HCT-116, 144 h, read-out: Prolif_HCT116-WT IC50
Outline: (§1)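 Compound titrations (top dose 1 or 10 µM, 1:3 dilution, 8 or 9 concentrations) and a DMSO control were applied to cells cultured overnight beforehand in RPMI 1640 with 10% FBS at 37° C, 5% CO2; viability was scored from luminescence.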

[2] = target: PRMT5/MEP50 (Homo sapiens, UniProt O14744); assay: MTase-Glo methyl transferase assay, Method A (Histone H4 peptide, 1 µM MTA, 24 h pre-incubation); type: biochemical; set-up: made in house; conditions: read-out: PRMT5 MTase Glo Ki (nM, Meth. A)
Outline: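 Luminescent SAH detection (MTase-Glo) after a 2 h room-temperature methylation of 1 µM biotinylated H4 (1-21) peptide by 10 nM PRMT5/MEP50 with 5 µM SAM, in 50 mM Tris pH 8.0.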

[3] = tested on: HCT116 MTAP null cells; assay: HCT116 proliferation assay, MTAP null cells (CellTiter-Glo, 6 days); type: cell-based; conditions: 144 h, read-out: Protif_ HCT116-MTAP null IC50
Outline: as §1

Sequence of PRMT5/MEP50 (O14744 whole entry): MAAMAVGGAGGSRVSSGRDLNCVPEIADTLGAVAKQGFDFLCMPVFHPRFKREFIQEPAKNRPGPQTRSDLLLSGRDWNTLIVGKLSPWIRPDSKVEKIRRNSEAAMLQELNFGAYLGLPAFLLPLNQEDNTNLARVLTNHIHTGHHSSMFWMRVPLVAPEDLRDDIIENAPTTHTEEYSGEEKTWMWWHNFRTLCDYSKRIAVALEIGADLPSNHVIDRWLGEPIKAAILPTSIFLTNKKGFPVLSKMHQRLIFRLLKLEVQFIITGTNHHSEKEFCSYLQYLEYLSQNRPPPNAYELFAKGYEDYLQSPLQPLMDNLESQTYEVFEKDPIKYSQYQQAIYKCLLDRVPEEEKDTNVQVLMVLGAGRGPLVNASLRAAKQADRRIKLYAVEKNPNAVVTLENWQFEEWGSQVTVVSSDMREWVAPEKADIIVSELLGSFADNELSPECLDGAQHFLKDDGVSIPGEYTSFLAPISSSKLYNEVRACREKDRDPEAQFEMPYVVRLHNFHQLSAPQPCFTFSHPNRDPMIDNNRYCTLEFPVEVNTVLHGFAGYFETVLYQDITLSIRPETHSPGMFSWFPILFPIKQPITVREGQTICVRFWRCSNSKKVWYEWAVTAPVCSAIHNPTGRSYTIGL
Sequence of PRMT5/MEP50 (Q9BQA1 whole entry partner): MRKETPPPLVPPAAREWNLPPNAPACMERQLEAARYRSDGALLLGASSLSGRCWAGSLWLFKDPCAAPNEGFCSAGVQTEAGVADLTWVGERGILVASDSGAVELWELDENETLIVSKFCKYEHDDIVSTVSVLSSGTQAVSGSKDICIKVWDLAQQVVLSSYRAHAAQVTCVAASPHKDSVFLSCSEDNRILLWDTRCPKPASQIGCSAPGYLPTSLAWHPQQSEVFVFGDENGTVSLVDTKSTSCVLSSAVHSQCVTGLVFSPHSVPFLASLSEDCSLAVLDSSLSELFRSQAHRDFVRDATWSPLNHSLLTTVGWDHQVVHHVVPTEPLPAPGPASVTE

IC50 [1] [µM]	Ki [2] [nM]	IC50 ([3]; HCT116-MTAP null) [nM]	Structure (SMILES)	IC50 [3] [nM]
3.9	0.13	128	Cc1cc(C(F)(F)F)ccc1CN(Cc1ncccc1F)C(=O)c1ccc2nc(N)c(C)cc2c1 [Example 329, 2-amino-N-((3-fluoro-2-pyridinyl)methyl)-3-methyl-N-(2-methyl-4-(trifluoromethyl)benzyl)-6-quinolinecarboxamide]	–
8.57	1.87	628	Cc1cc2cc(C(=O)N(Cc3ccc(Cl)cn3)CC(C)C)ccc2nc1N [Example 330, 2-amino-N-((5-chloro-2-pyridinyl)methyl)-3-methyl-N-(2-methylpropyl)-6-quinolinecarboxamide]	–
> 10	0.13	490	COC(=O)c1ccc(CN(Cc2ncccc2F)C(=O)c2ccc3nc(N)c(C)cc3c2)nc1 [Example 331, methyl 6-((((2-amino-3-methyl-6-quinolinyl)carbonyl)((3-fluoro-2-pyridinyl)methyl)amino)methyl)-3-pyridinecarboxylate]	–
5.14	4.87	479	Cc1cc2cc(C(=O)N(Cc3ccc(C(F)(F)F)cn3)C3CC3)c(F)cc2nc1N [Example 332, 2-amino-N-cyclopropyl-7-fluoro-3-methyl-N-((5-(trifluoromethyl)-2-pyridinyl)methyl)-6-quinolinecarboxamide]	–
0.72	0.002	27	Cc1cc2cc(C(=O)N(Cc3ccc(C4=CCOCC4)nn3)[C@H](C)c3ncccn3)ccc2nc1N [Example 333, 2-amino-N-((6-(3,6-dihydro-2H-pyran-4-yl)-3-pyridazinyl)methyl)-3-methyl-N-((1R)-1-(2-pyrimidinyl)ethyl)-6-quinolinecarboxamide]	–
> 10	0.34	434	C[C@H](c1ncccn1)N(Cc1ccc(C2=CCOCC2)nn1)C(=O)c1ccc2nc(N)c(Cl)cc2c1 [Example 334, 2-amino-3-chloro-N-((6-(3,6-dihydro-2H-pyran-4-yl)-3-pyridazinyl)methyl)-N-((1R)-1-(2-pyrimidinyl)ethyl)-6-quinolinecarboxamide]	–
> 10	0.73	727	Cc1cc2cc(C(=O)N(Cc3ccncn3)Cc3ccc(C(F)(F)F)cn3)ccc2nc1N [Example 335, 2-amino-3-methyl-N-(4-pyrimidinylmethyl)-N-((5-(trifluoromethyl)-2-pyridinyl)methyl)-6-quinolinecarboxamide]	–
> 10	0.47	400	Cc1cc2cc(C(=O)N(Cc3ccc(C(F)(F)F)cn3)Cc3cnccn3)ccc2nc1N [Example 336, 2-amino-3-methyl-N-(2-pyrazinylmethyl)-N-((5-(trifluoromethyl)-2-pyridinyl)methyl)-6-quinolinecarboxamide]	–
> 10	0.39	434	Cc1cnc(CN(Cc2ccc(C(F)(F)F)cn2)C(=O)c2ccc3nc(N)c(C)cc3c2)cn1 [Example 337, 2-amino-3-methyl-N-((5-methyl-2-pyrazinyl)methyl)-N-((5-(trifluoromethyl)-2-pyridinyl)methyl)-6-quinolinecarboxamide]	–
> 10	1.39	505	Cc1cc2cc(C(=O)N(Cc3ccc(Cl)cn3)Cc3ncccn3)ccc2nc1N [Example 340, 2-amino-N-((5-chloro-2-pyridinyl)methyl)-3-methyl-N-(2-pyrimidinylmethyl)-6-quinolinecarboxamide]	–
> 10	0.52	437	Cc1cc2cc(C(=O)N(Cc3ccc(C(F)(F)F)cn3)Cc3ncc(F)cn3)ccc2nc1N [Example 341, 2-amino-N-((5-fluoro-2-pyrimidinyl)methyl)-3-methyl-N-((5-(trifluoromethyl)-2-pyridinyl)methyl)-6-quinolinecarboxamide]	–
> 10	2.72	730	Cc1cc2cc(C(=O)N(Cc3ccncc3)Cc3ccc(C(F)(F)F)cn3)ccc2nc1N [Example 342, 2-amino-3-methyl-N-(4-pyridinylmethyl)-N-((5-(trifluoromethyl)-2-pyridinyl)methyl)-6-quinolinecarboxamide]	–
2.83	0.66	104	Cc1cc2cc(C(=O)N(Cc3ccc(C(F)(F)F)cn3)Cc3ncccc3C)ccc2nc1N [Example 343, 2-amino-3-methyl-N-((3-methyl-2-pyridinyl)methyl)-N-((5-(trifluoromethyl)-2-pyridinyl)methyl)-6-quinolinecarboxamide]	–
1.8	0.1	73	Cc1cc2cc(C(=O)N(Cc3ccc(C(F)(F)F)cn3)Cc3c(F)cccc3F)ccc2nc1N [Example 344, 2-amino-N-(2,6-difluorobenzyl)-3-methyl-N-((5-(trifluoromethyl)-2-pyridinyl)methyl)-6-quinolinecarboxamide]	–
1.58	0.04	81	C[C@H](c1ccc(F)cc1F)N(Cc1ccc(C(F)(F)F)cn1)C(=O)c1cnc2nc(N)c(Br)cc2c1 [Example 346, 7-amino-6-bromo-N-((1R)-1-(2,4-difluorophenyl)ethyl)-N-((5-(trifluoromethyl)-2-pyridinyl)methyl)-1,8-naphthyridine-3-carboxamide]	–
6.2	0.17	168	C[C@H](c1ncccn1)N(Cc1ccc(C(F)(F)F)cn1)C(=O)c1ccc2nc(N)c(Cl)cc2c1 [Example 347, 2-amino-3-chloro-N-((1R)-1-(2-pyrimidinyl)ethyl)-N-((5-(trifluoromethyl)-2-pyridinyl)methyl)-6-quinolinecarboxamide]	–
> 10	0.73	413	C[C@H](c1ncccn1)N(Cc1ccc(Br)nn1)C(=O)c1ccc2nc(N)c(Cl)cc2c1 [Example 348, 2-amino-N-((6-bromo-3-pyridazinyl)methyl)-3-chloro-N-((1R)-1-(2-pyrimidinyl)ethyl)-6-quinolinecarboxamide]	–
0.848	0.02	36	Cc1cc2cc(C(=O)N(Cc3ccc(Br)nn3)[C@H](C)c3ncccn3)c(F)cc2nc1N [Example 349, 2-amino-N-((6-bromo-3-pyridazinyl)methyl)-7-fluoro-3-methyl-N-((1R)-1-(2-pyrimidinyl)ethyl)-6-quinolinecarboxamide]	–
> 10	0.56	397	C[C@H](c1ncccn1)N(Cc1ccc(Br)nn1)C(=O)c1cnc2nc(N)c(Br)cc2c1 [Example 350, 7-amino-6-bromo-N-((6-bromo-3-pyridazinyl)methyl)-N-((1R)-1-(2-pyrimidinyl)ethyl)-1,8-naphthyridine-3-carboxamide]	–
> 10	1.29	824	C[C@H](c1ncccc1F)N(Cc1ccc(C#N)cn1)C(=O)c1ccc2nc(N)c(Cl)cc2c1 [Example 351, 2-amino-3-chloro-N-((5-cyano-2-pyridinyl)methyl)-N-((1R)-1-(3-fluoro-2-pyridinyl)ethyl)-6-quinolinecarboxamide]	–

Structure (SMILES)	IC50 [1] [µM]	Ki [2] [nM]	IC50 ([3]; HCT116-MTAP null) [nM]	IC50 [3] [nM]
Cc1cc2cc(C(=O)N(Cc3ccc(C(F)(F)F)cn3)Cc3ncccn3)ccc2nc1N [Example 338, 2-amino-3-methyl-N-(2-pyrimidinylmethyl)-N-((5-(trifluoromethyl)-2-pyridinyl)methyl)-6-quinolinecarboxamide]	> 10	0.8	–	232
